Measured values reported in the supplement of paper PMC10307832.

Columns and labels:
Experiment in all cases: relative viability (nuclei count vs DMSO), 5 days (fraction); higher = more cells survive
NCI-H1395 = system: NCI-H1395
In short: (§1)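 Lung cancer cell lines, seeded in 1536-well plates, were treated the following day by pin tool with a single drug or with five library-drug doses (not always all listed) in √10 steps on top of a fixed anchor-drug dose. Cells were fixed and nuclei stained in one step after 5 days, and nuclei were counted. Relative viability is the nuclei count for treated wells divided by that for vehicle wells, reported as medians of duplicate plates.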

HARA = system: HARA
In short: as §1

SK-MES-1 = system: SK-MES-1
In short: as §1

NCI-H1944 = system: NCI-H1944
In short: as §1

NCI-H2342 = system: NCI-H2342
In short: as §1

EPLC-272H = system: EPLC-272H
In short: as §1

NCI-H358 = system: NCI-H358
In short: as §1

NCI-H661 = system: NCI-H661
In short: as §1

COR-L23 = system: COR-L23
In short: as §1

HCC-827 = system: HCC-827
In short: as §1

NCI-H1792 = system: NCI-H1792
In short: as §1

NCI-H1437 = system: NCI-H1437
In short: as §1

NCI-H2023 = system: NCI-H2023
In short: as §1

HCC-15 = system: HCC-15
In short: as §1

NCI-H727 = system: NCI-H727
In short: as §1

HCC-366 = system: HCC-366
In short: as §1

LCLC-103H = system: LCLC-103H
In short: as §1

UMC-11 = system: UMC-11
In short: as §1

NCI-H1975 = system: NCI-H1975
In short: as §1

SK-LU-1 = system: SK-LU-1
In short: as §1

NCI-H2085 = system: NCI-H2085
In short: as §1

HCC-78 = system: HCC-78
In short: as §1

COR-L 105 = system: COR-L 105
In short: as §1

NCI-H2405 = system: NCI-H2405
In short: as §1

SMILES: CCCCCCCCCCCC1=C(O)C(=O)C=C(O)C1=O [Embelin] + Cc1nc(Nc2ncc(C(=O)Nc3c(C)cccc3Cl)s2)cc(N2CCN(CCO)CC2)n1 [Dasatinib] (partner 0.075 µM)
- relative viability (NCI-H1395; first compound 0.08 µM): 0.393
- relative viability (NCI-H1395; first compound 0.8 µM): 0.484
- relative viability (NCI-H1395; first compound 2.53 µM): 0.404
- relative viability (NCI-H1395; first compound 8 µM): 0.352
- relative viability (HARA; first compound 0.08 µM): 0.25
- relative viability (HARA; first compound 0.8 µM): 0.329
- relative viability (HARA; first compound 2.53 µM): 0.279
- relative viability (HARA; first compound 8 µM): 0.272
- relative viability (SK-MES-1; first compound 0.08 µM): 0.372
- relative viability (SK-MES-1; first compound 0.8 µM): 0.466
- relative viability (SK-MES-1; first compound 2.53 µM): 0.321
- relative viability (SK-MES-1; first compound 8 µM): 0.361
- relative viability (NCI-H1944; first compound 0.08 µM): 0.2
- relative viability (NCI-H1944; first compound 0.8 µM): 0.221
- relative viability (NCI-H1944; first compound 2.53 µM): 0.245
- relative viability (NCI-H1944; first compound 8 µM): 0.195
- relative viability (NCI-H2342; first compound 0.08 µM): 0.288
- relative viability (NCI-H2342; first compound 0.8 µM): 0.346
- relative viability (NCI-H2342; first compound 2.53 µM): 0.326
- relative viability (NCI-H2342; first compound 8 µM): 0.342
- relative viability (EPLC-272H; first compound 0.08 µM): 0.393
- relative viability (EPLC-272H; first compound 0.8 µM): 0.469
- relative viability (EPLC-272H; first compound 2.53 µM): 0.442
- relative viability (EPLC-272H; first compound 8 µM): 0.277
- relative viability (NCI-H358; first compound 0.08 µM): 0.205
- relative viability (NCI-H358; first compound 0.8 µM): 0.136
- relative viability (NCI-H358; first compound 2.53 µM): 0.171
- relative viability (NCI-H358; first compound 8 µM): 0.162
- relative viability (NCI-H661; first compound 0.08 µM): 0.852
- relative viability (NCI-H661; first compound 0.8 µM): 1.08
- relative viability (NCI-H661; first compound 2.53 µM): 0.99
- relative viability (NCI-H661; first compound 8 µM): 0.703
- relative viability (COR-L23; first compound 0.08 µM): 0.486
- relative viability (COR-L23; first compound 0.8 µM): 0.55
- relative viability (COR-L23; first compound 2.53 µM): 0.458
- relative viability (COR-L23; first compound 8 µM): 0.562
- relative viability (HCC-827; first compound 0.08 µM): 0.333
- relative viability (HCC-827; first compound 0.8 µM): 0.406
- relative viability (HCC-827; first compound 2.53 µM): 0.404
- relative viability (HCC-827; first compound 8 µM): 0.321
- relative viability (NCI-H1792; first compound 0.08 µM): 0.771
- relative viability (NCI-H1792; first compound 0.8 µM): 0.803
- relative viability (NCI-H1792; first compound 2.53 µM): 0.792
- relative viability (NCI-H1792; first compound 8 µM): 0.867
- relative viability (NCI-H1437; first compound 0.08 µM): 0.407
- relative viability (NCI-H1437; first compound 0.8 µM): 0.459
- relative viability (NCI-H1437; first compound 2.53 µM): 0.337
- relative viability (NCI-H1437; first compound 8 µM): 0.275
- relative viability (NCI-H2023; first compound 0.08 µM): 0.565
- relative viability (NCI-H2023; first compound 0.8 µM): 0.673
- relative viability (NCI-H2023; first compound 2.53 µM): 0.611
- relative viability (NCI-H2023; first compound 8 µM): 0.556
- relative viability (HCC-15; first compound 0.08 µM): 0.592
- relative viability (HCC-15; first compound 0.8 µM): 0.628
- relative viability (HCC-15; first compound 2.53 µM): 0.711
- relative viability (HCC-15; first compound 8 µM): 0.582
- relative viability (NCI-H727; first compound 0.08 µM): 0.318
- relative viability (NCI-H727; first compound 0.8 µM): 0.411
- relative viability (NCI-H727; first compound 2.53 µM): 0.492
- relative viability (NCI-H727; first compound 8 µM): 0.375
- relative viability (HCC-366; first compound 0.08 µM): 0.593
- relative viability (HCC-366; first compound 0.8 µM): 0.688
- relative viability (HCC-366; first compound 2.53 µM): 0.984
- relative viability (HCC-366; first compound 8 µM): 0.557
- relative viability (LCLC-103H; first compound 0.08 µM): 0.453
- relative viability (LCLC-103H; first compound 0.8 µM): 0.517
- relative viability (LCLC-103H; first compound 2.53 µM): 0.511
- relative viability (LCLC-103H; first compound 8 µM): 0.405
- relative viability (UMC-11; first compound 0.08 µM): 0.45
- relative viability (UMC-11; first compound 0.8 µM): 0.48
- relative viability (UMC-11; first compound 2.53 µM): 0.519
- relative viability (UMC-11; first compound 8 µM): 0.437
- relative viability (NCI-H1975; first compound 0.08 µM): 0.31
- relative viability (NCI-H1975; first compound 0.8 µM): 0.396
- relative viability (NCI-H1975; first compound 2.53 µM): 0.502
- relative viability (NCI-H1975; first compound 8 µM): 0.333
- relative viability (SK-LU-1; first compound 0.08 µM): 0.192
- relative viability (SK-LU-1; first compound 0.8 µM): 0.191
- relative viability (SK-LU-1; first compound 2.53 µM): 0.199
- relative viability (SK-LU-1; first compound 8 µM): 0.138
- relative viability (NCI-H2085; first compound 0.08 µM): 0.253
- relative viability (NCI-H2085; first compound 0.8 µM): 0.246
- relative viability (NCI-H2085; first compound 2.53 µM): 0.227
- relative viability (NCI-H2085; first compound 8 µM): 0.209
- relative viability (HCC-78; first compound 0.08 µM): 0.373
- relative viability (HCC-78; first compound 0.8 µM): 0.44
- relative viability (HCC-78; first compound 2.53 µM): 0.353
- relative viability (HCC-78; first compound 8 µM): 0.451
- relative viability (COR-L 105; first compound 0.08 µM): 0.339
- relative viability (COR-L 105; first compound 0.8 µM): 0.544
- relative viability (COR-L 105; first compound 2.53 µM): 0.355
- relative viability (COR-L 105; first compound 8 µM): 0.33
- relative viability (NCI-H2405; first compound 0.08 µM): 0.238
- relative viability (NCI-H2405; first compound 0.8 µM): 0.24
- relative viability (NCI-H2405; first compound 2.53 µM): 0.178
- relative viability (NCI-H2405; first compound 8 µM): 0.215
